System: DSS-induced mouse colitis
Assay: Effect on improvement of pathological conditions in DSS-induced IBD model
Type: in vivo, mice (C57BL/6N Jcl)
Set-up: DAI Score (MEANS ± SD): scale not given here
Details: 2% DSS day 1 to day 7, drug 30 mg/kg/day day 0 to day 7; for Abnormal stool occurrence: mice with abnormal stool (loose stool, diarrhea, blood in stool) counted on day 8, n=6 per group, control 6, non-treatment 0; for DAI Score (MEANS ± SD): DAI scores per Table 1 (body weight loss, stool hardness, fecal occult blood), day 8, control 5.3 ± 2.1
Experimental: This test was performed in accordance with the method described in PEDIATRIC RESEARCH, Vol. 53, No. 1, 143-147, 2003. […] Dextran sulfate sodium (hereinafter abbreviated as “DSS,” product of Wako Pure Chemical Industries, Ltd.) was dissolved in purified water to 2% w/v, and the solution was fed ad libitum to the mice for seven days through a liquid-feed bottle (day 1 to day 7), to thereby establish ulcerative colitis models. The test groups included a drug-non-administration group (control), and a uracil derivative (1)-administration (30 mg/kg/day) group. A non-treatment group was provided through feeding purified water instead of 2% aqueous DSS solution. The drug was administered for eight days from one day before start of feeding 2% aqueous DSS solution (i.e., from day 0 to day 7). The improvement effect was determined on the day following the final drug administration day (on day 8) by counting occurrence of abnormal stools (loose stool, diarrhea, and visual observation of presence of blood in stool).

## CN(CCO)Cc1[nH]c(=O)[nH]c(=O)c1Cl [Compound 3, 5-chloro-6-((N-(2-hydroxyethyl)-N-methylamino)methyl)uracil]
  Abnormal stool occurrence: 3

## O=c1[nH]c(CN2CCCC2)c(Cl)c(=O)[nH]1 [Compound 2, 5-chloro-6-(1-pyrrolidinylmethyl)uracil]
  Abnormal stool occurrence: 3

## Cl.O=c1[nH]c(CSc2nnc[nH]2)c(Cl)c(=O)[nH]1 [Compound 4, 5-chloro-6-(1,2,4-triazole-3-thiomethyl)uracil hydrochloride salt]
  DAI Score (MEANS ± SD): 0.22 ± 0.27
  Abnormal stool occurrence: 0

## N=C1NCCN1Cc1[nH]c(=O)[nH]c(=O)c1Cl [Compound 5, 5-chloro-6-(1-(2-iminoimidazolidinyl)methyl)uracil]
  DAI Score (MEANS ± SD): 0.28 ± 0.25
  Abnormal stool occurrence: 0

## CNCc1[nH]c(=O)[nH]c(=O)c1Cl [Compound 1, 5-chloro-6-(methylaminomethyl)uracil]
  Abnormal stool occurrence: 4

## O=c1[nH]c(CN2CCCC2)c(Br)c(=O)[nH]1 [Compound 6, 5-bromo-6-(1-pyrrolidinylmethyl)uracil]
  DAI Score (MEANS ± SD): 0.22 ± 0.27
  Abnormal stool occurrence: 2

From US8188105B2, “Therapeutic agent for inflammatory bowel disease comprising uracil derivative as active ingredient” (Taiho Pharmaceutical Co., Ltd., priority 2007, dated 2012)
